# Measurements: patent publication US9920300B2, “Induction of germ cells from pluripotent cells” (The Board of Trustees of the Leland Stanford Junior …, priority 2009, dated 2018)
# Experiments:
# DAZ = assay: shRNA silencing of DAZ2-V5 and DAZ1-4 in 293T/293FT cells (Western); format: cell-based, human; conditions: for Protein level of DAZ2-V5: cotransfected
# Protocol: All shRNAs targeting human DAZL, DAZ and BOULE were constructed using the Block-iT inducible H1 lentiviral system (Invitrogen). All shRNAs were first introduced into pENTR/H1/TO vectors and transferred into pLenti4/BLOCK-iT-DEST destination vectors (see below for sequence information). When shRNA was tested in 293FT cells for its efficacy of silencing, transient transfection without selection was carried out and cell lysate was collected after 24 h. After specific shRNA was chosen, viral supernatant was prepared as described for pLVGV. Subsequently, the viral supernatant was used to transduce human ES cells on matrigel as described above, except with zeocin selection (2 μg/ml) for 3 days for stable integration of the shRNA vector into human ES cells. Overexpression vectors were constructed by inserting the EF1μ, promoter, and DAZL, DAZ2 or BOULE cDNA into the p2k7bias vectors, selected with blasticidin (2 μg ml^−1) in culture for 3 days to ensure stable integration and subjected for each differentiation experiment. shRNA sequences were:
# cDNA clones of DAZ1-4 (NCBI accession numbers: DAZ1, BC11492; DAZ2, NM_020363; DAZ3, BC113005; DAZ4, BC047480) were obtained from ATCC, PCR amplified, cloned into pENTR-D-TOPO vector, and subsequently cloned into pLenti4/TO/V5-DEST (Invitrogen). […] Co-transfection of the overexpression vector and shDAZ4 at the ratio of 1:1 and 1:2 into 293FT cells was carried out and all the lysates were collected after 24 h and loaded equally onto 10% SDS-PAGE gel.
# DAZL = assay: shRNA silencing of DAZL-V5 / DAZL:GFP cotransfected in 293T cells; format: cell-based, human
# Protocol: (§1) To collect the adherently differentiated cells, cells were washed with 3 ml cold PBS without Ca^2+ and Mg^2+, then scraped from the plate in 1 ml PBS plus 2× protease inhibitors (Complete Mini, Roche) and transferred immediately to a 1.5-ml tube on ice. The PBS cell suspension was then spun at 5,000 r.p.m. in a microcentrifuge for 3 min and the supernatant was discarded. The cell pellet was resuspended with 200 ul RIPA buffer (50 mM Tris, 150 mM NaCl, 0.5% sodium deoxycholate, 1% NP-40, 0.1% SDS, pH 8) plus 2× protease inhibitors (Complete Mini, Roche). The cell pellet suspension was pipetted rigorously at least 10 times, then vortexed for 30 sec. The suspension was again spun down for 3 min at the same speed. The supernatant was measured for protein concentration and denatured at a 1:1 ratio with 2× Laemmli buffer at 95° C. for 5 min, then loaded onto either a 10% or 12% SDS-PAGE gel. The SDS-PAGE gels were run at 150 V for 1 h and transferred to a PVDF membrane for 1 h at 100 V in CAPS buffer (10 mM CAPS, 10% methanol, pH 11). Transferred blots were blocked in 5% non-fat milk for 1 h at room temperature. […]
# DAZL and VASA = assay: Western blot of DAZL and VASA in human ES cells after silencing/overexpression; format: cell-based; conditions: human ES cells differentiated 14 days with BMPs
# Protocol: as §1
# mouse fetal germ cells = mouse fetal germ cells incubated with PAHs; cited from earlier work
# [1] = test system: hESCs (H9) differentiating to germ cells; assay: qPCR gene expression in hESCs differentiated with BMPs in the presence of PAHs; format: cell-based, human
# Protocol: (§2) A federally approved hESC line (H9, XX) was maintained and differentiated as previously described (see methods of Kee, K., et al. (2006) Stem Cells & Differentiation 15: 831-837, the disclosure of which is incorporated herein). Briefly, adherent differentiation began upon the addition of differentiation media containing 20% FBS (Hyclone) and supplemented with Bone Morphogenetic Proteins (BMPs) -4, -7, and -8b (R&D) reconstituted in 4 mM HCl/0.1% BSA and used at 50 ng/ml. DMBA (Sigma), ANF (Sigma) and DMBA-DHD(MRI) were dissolved in DMSO at a 1:1000 dilution before adding to the media to the indicated final concentrations.
# Total RNA was extracted using the RNeasy kit (Qiagen) and cDNA prepared with SuperScriptIII (Invitrogen) according to the manufacturer's protocols using 1 μg RNA. The cDNA was subjected to a pre-amplification using 1.25 μl out of 20 μl total cDNA, 1 μl Platinum Taq (Invitrogen), 5 μl CellsDirect 2× Reaction Buffer and 2.5 μl 0.2× Taqman (Applied Biosystem) probe mix. PCR cycle program for pre-amplification is: 95° C., 10 minutes; 95° C., 15 seconds and 60° C., 4 minutes for 14 cycles. Assays and samples are prepared according to the Fluidigm protocol and run on a 48×48 chip. BioMark (Fluidigm) program was used to obtain delta Ct value before imported into Excel file sheet to calculate delta-delta Ct value=2^(CtGene−CtHousekeeping genes). The delta-delta Ct value is then normalized to the control of each experiment to obtain the final normalized expression level. All delta-delta Ct values were calculated using four housekeeping genes (GAPDH, CTNNB1, ACTS, CENTRIN) except in experiment in FIG. 35, which only used GAPDH as housekeeping gene in a regular qPCR reaction in 7300 Real Time PCR System (Applied Biosystems).
# [2] = test system: VASA:GFP+ and VASA:GFP− cells; assay: Caspase 3/7 apoptosis assay in FACS-sorted cells; format: cell-based, human; conditions: 1 μM DMBA-DHD
# Protocol: Single cell suspensions were prepared by incubating differentiated hESCs in Collagenase Type IV (1 mg/ml) for ten minutes, followed by ten minutes in TrypLE (Invitrogen). Cell pellet was resuspended in 0.5 ml differentiated media and passed through a 40 μm strainer. Cell suspensions were then subjected to FACS analysis with BD FACSAria system (BD). Cells were sorted for either VASA:GFP+ or VASA:GFP−. 1000 cells of each group were collected in 100 μl PBS and mixed with 100 μl of Caspase-Glo 3/7 reagent according to manufacturer protocol (Promega). Luminescence was measured after 1 hour of incubation at room temperature with Fluostar Optima (BMG).
# [3] = test system: VASA:GFP+ PGCs from hESCs; assay: VASA:GFP reporter FACS of hESCs with DMBA-DHD and shAHR (Example 3); format: cell-based, human
# Protocol: as §2
# shRNA was used to target AHR by the BLOCK-IT™ Inducible H1 Lentiviral RNAi System (Invitrogen). Double stranded oligos were generated, ligated into the pENTR vector and transfected into 293FT cells for initial screening. After 24 hours, RNA was harvested using the RNeasy kit and cDNA generated using SuperScriptIII with 1 μg total RNA input. The destination lentiviral vector was generated by recombining the pENTR vector with the pLenti4/BLOCK-it-DEST vector via the Gateway technology according to the manufacturer's protocol. Lentiviral supernatant carrying the pLenti4/BLOCK-it-DEST-shAHR vector was generated by co-transfection with 10 μg of each vector with 10 μg Vsvg and 15 μg Δ8.9 into 293FT cells grow on T175 plates. Supernatant was harvested after three days and either used immediately for transduction of hESCs or frozen at −80° C. until further usage. hESCs prepared for transduction were plated to 50% confluency on matrigel coated plates. Polybrene was added to the lentivirus supernatant for a final concentration of 8 μg/ml. […]
# Single cell suspensions were prepared by incubating differentiated hESCs in Collagenase Type IV (1 mg/ml) for ten minutes, followed by ten minutes in TrypLE (Invitrogen). […] Luminescence was measured after 1 hour of incubation at room temperature with Fluostar Optima (BMG).
compound,measurement,setting,value
"shDAZ3: shRNA 5′-GCCACGTCCTTTGGTAGTTAA-3′, SEQ ID NO: 33",Protein level of DAZ2-V5,DAZ,significantly decreased
"shDAZL2: shRNA 5′-GCATATCCTACTTACCCAAAT-3′, SEQ ID NO: 25",Silencing of DAZL:GFP fusion protein,DAZL,most effective
same,Expression of DAZL and VASA,DAZL and VASA,significantly reduced
"O=c1cc(-c2ccccc2)oc2c1ccc1ccccc12 [ANF, α-napthoflavone]",Fetal germ cell toxicity of PAHs,mouse fetal germ cells,could be prevented
same,Rescue of KDR and NES expression,[1]; ANF added with DMBA-DHD,no rescue
same,"Expression of germ cell markers VASA, DAZL and PRDM1","[1]; ANF added with DMBA-DHD, relative to DMBA-DHD addition alone",increased
same,BAX expression,"[1]; ANF added with DMBA-DHD, relative to DMBA-DHD alone",decreased
"shDAZ1: shRNA 5′-GCAAATCCTGAGACTCCAAAC-3′, SEQ ID NO: 31",Protein level of DAZ2-V5,DAZ,significantly decreased
"Cc1c2ccccc2c(C)c2c3c(ccc12)C(O)C(O)C=C3 (centres unmarked) [DMBA-DHD, DMBA-3,4-dihydrodiol]",Apoptosis activity (Caspase 3/7),[2]; VASA:GFP+ cells,significantly increased
same,Apoptosis activity (Caspase 3/7),[2]; VASA:GFP− cells,not in the VASA:GFP− cells
same,"Number of PGCs out of 20,000 differentiated hESCs","[3]; hESCs carrying shLacZ, 1 μM DMBA-DHD, control 908",~626
same,Percentage of VASA:GFP+ PGCs,"[3]; hESCs carrying shLacZ, 14 days BMP induction, 1 μM DMBA-DHD, untreated control 4.5%",3.1%
same,Reduction in human PGCs,[3]; in the presence of DMBA-DHD,less than two-fold
same,Potency relative to DMBA (decrease in germ cell specific gene expression),"[1]; 0.1 μM DMBA-DHD comparable to 1 μM DMBA, 1 μM DMBA-DHD more potent than 10 μM DMBA",at least one log
same,Expression of AFP and CDX2,[1]; hESCs differentiated with BMPs,not reproducibly reduced
same,Expression of somatic markers KDR and NES,[1]; hESCs differentiated with BMPs,did not significantly alter
same,Increase of BAX expression,"[1]; hESCs differentiated with BMPs, vs DMSO control",20 fold
"shDAZ4: shRNA 5′-GCATTTCCTGCTTATCCAAAT-3′, SEQ ID NO: 34",Silencing of DAZ1-4 proteins,DAZ; 293FT cells,all four DAZ proteins were silenced
same,Protein level of DAZ2-V5,DAZ,significantly decreased
"shDAZ5: shRNA 5′-GCATTTCCTGCTTATCCAAGT-3′, SEQ ID NO: 35",Protein level of DAZ2-V5,DAZ,significantly decreased
